Source: US12240825B2, “Oxexin 1 receptor antagonists” (Heptares Therapeutics Limited, priority 2019, dated 2025)

Key:
rats [1] = conditions: cited from earlier work
rats [2] = conditions: cited from earlier work; remark: listed apart in the source
rats [3] = conditions: intraperitoneal administration; cited from earlier work
rats [4] = conditions: sodium lactate infusion and CO2 challenge models; cited from earlier work
Human OX1 receptor [5] = molecular target: T1, Human OX1 receptor (Homo sapiens (Human), UniProt O43613); experiment: [3H]-radioligand binding assay, OX1; conditions: competition binding, membranes of SF21 cells, Ki by Cheng-Prusoff
Excerpt: (§1) Cloning, Baculovirus generation, large-scale infection of SF21 cells and membrane preparation. Human OX1 or OX2 receptor were cloned into Invitrogen's (ThermoFisher Scientific, UK) Bac-to-Bac Baculovirus Expression System. P0 baculovirus was generated by transfecting SF9 cells with bacmid DNA using Cellfectin® II transfection reagent (ThermoFisher Scientific, UK, Catalog number 10362-100). Following P0 generation P1 virus was then generated ready for large scale infection and membrane preparation. SF21 cells were grown in expression medium ESF921 (Expression Systems, USA, catalog number 96-001-01) supplemented with 10% heat-inactivated FBS and 1% Pen/Strep and were infected at a cell density of 2.5×10^6 cells/mL and a multiplicity of infection of 1.0 for both human OX1R and OX2R. Incubation was carried out at over 48 h in a shaking incubator set at 27° C. The cell culture was then centrifuged at 2,500 rcf for 10 min at 4° C. The pellets were resuspended in cold PBS supplemented with Roche's Complete EDTA-free protease inhibitor cocktail tablets (Roche Applied Sciences, catalog number 05056489001), 1 mM PMSF and 1 mM EDTA. The resuspended cell paste was then centrifuged at 3,273 rcf for 12 min at 4° C. The supernatant was discarded and the pellet frozen at −80° C. The cell pellet from a 4 L culture was resuspended in buffer containing 50 mM HEPES pH 7.5, 150 mM NaCl, 8 Roche EDTA-Free protease inhibitor cocktail tablets and 1 mM PMSF. The suspension was left stirring at rt for 1 h and then homogenised for 90 s at 9,500 rpm using a VDI 25 (VWR, USA) homogeniser. The cells were then lysed using a Microfluidiser processor M-110L Pneumatic (Microfluidics, USA) at 60 PSI and membranes collected by ultracentrifugation at 204.7 k×g for 1 h. The supernatant was discarded and the pellet was resuspended and homogenised in 90 s at 9,500 rpm in 50 mL (25 mL for each 2 L culture) of buffer containing 50 mM Hepes pH 7.5, 150 mM NaCl, 3 Roche EDTA-free protease inhibitor cocktail tablets and 1 mM PMSF. The resulting membranes were then stored at −80° C.
(§2) [^3H]-radioligand binding assay. After thawing, membrane homogenates were resuspended in the binding buffer (8.5 mM HEPES, pH 7.4, 1.3 mM CaCl2, 1.2 mM MgSO4, 118 mM NaCl, 4.7 mM KCl, 4 mM NaHCO3, 1.2 mM KH2PO4, 11 mM glucose) to a final assay concentration of 6.4 μg (OX1) or 1.4 μg (OX2) protein per well. Saturation isotherms were determined by the addition of various concentrations (0-30 nM) of [^3H]-4-(2,6-difluoro-4-methoxybenzyl)-2-(5,6-dimethoxypyridin-3-yl)-2H-1,2,4-benzothiadiazin-3(4H)-one 1,1-dioxide (Christopher et al, MedChemComm., 2015, 6, 947-955) in a total reaction volume of 250 μL for 90 min at rt. At the end of the incubation, membranes were filtered onto a 96-well GF/B filter pre-incubated with 0.5% polyethylenimine, with a Tomtec cell harvester and washed 5 times with 0.5 mL distilled water. Non-specific binding (NSB) was measured in the presence of 3.33 μM [4-(5-chloro-1,3-benzoxazol-2-yl)-7-methyl-1,4-diazepan-1-yl][5-methyl-2-(2H-1,2,3-triazol-2-yl)phenyl]methanone (Wertz et al, Angew. Chem. Int. Ed., 2011, 50, 11511-11515). Radioactivity on the filter was counted (1 min) on a Microbeta radiometric plate counter (Perkin Elmer) after addition of 50 μL of scintillation fluid (LabLogic: Part #SG-BXX-14). […] IC50 values were derived from the inhibition curve and the equilibrium dissociation constant (Ki) values were calculated using the Cheng-Prusoff equation.

Human OX2 receptor [6] = molecular target: T2, Human OX2 receptor (Homo sapiens (Human), UniProt O43614); experiment: [3H]-radioligand binding assay, OX2; conditions: competition binding, membranes of SF21 cells, Ki by Cheng-Prusoff
Excerpt: as §1, §2

Human OX1 receptor [7] = molecular target: T1, Human OX1 receptor; experiment: IPone accumulation assay, CHO cells expressing OX1; format: cell-based; conditions: antagonism of orexin A (EC80 ~20 nM)-induced inositol phosphate turnover, read-out: fpKb average OX1 (converted)
Protocol: Generation of CHO stable cell lines expressing the human OX1R and OX2R. Stable cell lines for the human OX1R and OX2R receptors were generated through the transfection of CHO cells using the transfection reagent Genejuice (Novagen number 70967) and cDNA coding for either the human OX1R or OX2R. Cells were cultured in Sigma Nutrient Mixture F-12 Ham media (catalog number N6658) supplemented with 10% heat-inactivated FBS. Forty-eight hours after transfection, cells were harvested and placed under geneticin selection by culturing in Sigma Nutrient Mixture F-12 Ham media supplemented with 10% heat-inactivated FBS and geneticin (ThermoFisher Catalog number: 10131035). Selection of the final stable clone for each receptor was made on the basis of receptor expression, assay signal to noise and robustness though increasing passage. Selected clones for the human OX1R and OX2R were then frozen down into liquid nitrogen using Cell Freezing Medium-DMSO (Sigma-Aldrich catalog number: C6164).
(§3) IPone accumulation assay. A CHO cell line stably expressing either human OX1 or OX2 receptor was used with the IPone HTRF assay kit (CisBio: Part #62IPAPEJ) to measure receptor activation. The assay was optimised to measure the ability (potency; fpKb) of antagonists to reduce agonist (orexin A)-induced inositol phosphate turnover. Briefly, cells were plated onto half area 96-well white walled plates at a density of 12,500 cells/well. Sixteen hours post-plating cell growth media was replaced with antagonist concentration-response curve diluted in stimulation buffer (supplied with the kit). Cells were incubated in a humidified incubator (37° C.) for 30 min before an EC80 challenge concentration (˜20 nM (OX1) and 40 nM (OX2)) of orexin A (Tocris catalogue number 1455). After 30 min stimulation in a humidified incubator (37° C.) the assay was terminated by the addition of detection mixture as per manufacturer's instructions. The concentration of compound which reduced orexin-A stimulated turnover of inositol phosphates by 50% (IC50) was calculated by fitting to a four parameter sigmoidal dose response curve. The IC50 values were converted to fpKB values using the orexin A pEC50 value estimated on each plate as well as the challenge concentration interpolated from the orexin A control curve.

Human OX2 receptor [8] = molecular target: T2, Human OX2 receptor; experiment: IPone accumulation assay, CHO cells expressing OX2; format: cell-based; conditions: antagonism of orexin A (EC80 40 nM)-induced inositol phosphate turnover, read-out: fpKb average OX2 (converted)
Protocol: as §3, with “Generation of CHO stable cell lines expressing the human OX1R and OX2R. Stable cell lines for the human OX1R and OX2R receptors were generated through the transfection of CHO cells using the transfection reagent Genejuice (Novagen number 70967) and cDNA coding for either the human OX1R or OX2R. Cells were cultured in Sigma Nutrient Mixture F-12 Ham media (catalog number N6658) supplemented with 10% heat-inactivated FBS. Forty-eight hours after transfection, cells were harvested and placed under geneticin selection by culturing in Sigma Nutrient Mixture F-12 Ham media supplemented with 10% heat-inactivated FBS and geneticin (ThermoFisher Catalog number: 10131035). Selection of the final stable clone for each receptor was made on the basis of receptor expression, assay signal to noise and robustness though increasing passage. Selected clones for the human OX1R and OX2R were then frozen down into liquid nitrogen using Cell Freezing Medium-DMSO (Sigma-Aldrich catalog number: C6164). IPone accumulation” for “IPone accumulation”, “(CisBio: Part #62[…]) to measure” for “(CisBio: Part #62IPAPEJ) to measure”, “challenge concentration ( 20 nM (OX1)” for “challenge concentration (˜20 nM (OX1)”

T2 sequence (O43614 whole entry): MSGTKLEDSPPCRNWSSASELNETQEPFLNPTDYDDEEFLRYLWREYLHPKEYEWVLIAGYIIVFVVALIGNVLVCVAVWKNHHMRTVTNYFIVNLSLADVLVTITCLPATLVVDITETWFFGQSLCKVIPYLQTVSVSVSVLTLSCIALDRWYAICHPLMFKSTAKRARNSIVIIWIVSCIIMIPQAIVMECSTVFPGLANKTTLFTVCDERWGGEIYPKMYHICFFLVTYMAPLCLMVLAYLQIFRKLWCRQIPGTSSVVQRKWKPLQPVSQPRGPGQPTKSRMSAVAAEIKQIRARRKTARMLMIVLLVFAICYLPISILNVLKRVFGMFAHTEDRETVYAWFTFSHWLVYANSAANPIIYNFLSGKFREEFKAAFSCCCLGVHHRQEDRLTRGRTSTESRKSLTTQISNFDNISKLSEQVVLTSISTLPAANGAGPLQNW
T1 sequence (O43613 whole entry): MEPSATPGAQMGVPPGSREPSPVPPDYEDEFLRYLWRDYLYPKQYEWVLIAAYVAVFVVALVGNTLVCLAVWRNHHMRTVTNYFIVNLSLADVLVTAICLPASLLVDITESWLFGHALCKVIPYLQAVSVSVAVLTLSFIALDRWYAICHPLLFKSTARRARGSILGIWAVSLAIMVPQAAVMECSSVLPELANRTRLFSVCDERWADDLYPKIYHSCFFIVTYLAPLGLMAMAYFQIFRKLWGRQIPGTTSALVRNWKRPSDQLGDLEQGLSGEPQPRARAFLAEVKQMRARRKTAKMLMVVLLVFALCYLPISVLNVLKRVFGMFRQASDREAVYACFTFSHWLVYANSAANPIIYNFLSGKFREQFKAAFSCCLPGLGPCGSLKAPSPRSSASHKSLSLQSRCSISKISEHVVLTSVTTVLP

Structure (SMILES) | alcohol self-administration (rats [1]) | nicotine self-administration (rats [2]) | opiate withdrawal symptoms (rats [3]) | panic-like behaviours and cardiovascular responses (rats [4]) | pKi average OX1 (Human OX1 receptor [5]) | pKi average OX2 (Human OX2 receptor [6]) | Kb (Human OX1 receptor [7]) | Kb (Human OX2 receptor [8])
Cc1nc2ccc(NC(=O)Nc3ccnc4cccnc34)cc2o1 [SB-334867] | decreases | decreases | significantly reduce | – | – | – | – | –
O=C(c1cccc(F)c1-c1ncccn1)N1[C@@H]2CC[C@H]1[C@H](Nc1cnc(C(F)(F)F)cn1)C2 [JNJ-54717793] | – | – | – | attenuated | – | – | – | –
CC(=O)Nc1cc(F)c(-n2nccn2)c(C(=O)N[C@H]2CCC[C@@H]2COc2ccc(F)cc2)c1 [Example 1, 5-acetamido-3-fluoro-N-[(1S,2S)-2-[(4-fluorophenoxy)methyl]cyclopentyl]-2-(triazol-2-yl)benzamide] | – | – | – | – | 9.0 | 7.3 | 0.794 nM | > 63.1 nM
COC(=O)Nc1ccc(-n2nccn2)c(C(=O)N[C@H]2CCC[C@@H]2COc2ccc(F)cc2)n1 [Example 10, methyl N-[6-[[(1S,2S)-2-[(4-fluorophenoxy)methyl]cyclopentyl]carbamoyl]-5-(triazol-2-yl)-2-pyridyl]carbamate] | – | – | – | – | 8.1 | <5.9 | 79.4 nM | > 794 nM
CC(=O)Nc1ccc(-n2nccn2)c(C(=O)N[C@H]2CCC[C@@H]2COc2ccc(F)cc2)n1 [Example 3, 6-acetamido-N-[(1S,2S)-2-[(4-fluorophenoxy)methyl]cyclopentyl]-3-(triazol-2-yl)pyridine-2-carboxamide] | – | – | – | – | 8.3 | 5.4 | 20 nM | 1260 nM
CC(=O)Nc1cnc(-n2nccn2)c(C(=O)N[C@H]2CCC[C@@H]2COc2ccc(F)cc2)c1 [Example 25, 5-acetamido-N-[(1S,2S)-2-[(4-fluorophenoxy)methyl]cyclopentyl]-2-(triazol-2-yl)pyridine-3-carboxamide] | – | – | – | – | 8.5 | 5.5 | 3.98 nM | > 631 nM
O=C(N[C@H]1CCC[C@@H]1COc1ccc(F)cc1)c1nc(NCC(F)F)ccc1-n1nccn1 [Example 19, 6-(2,2-difluoroethylamino)-N-[(1S,2S)-2-[(4-fluorophenoxy)methyl]cyclopentyl]-3-(triazol-2-yl)pyridine-2-carboxamide] | – | – | – | – | 8.8 | 6.6 | 15.8 nM | > 501 nM
